The experiment has as its target T1, p300 (Homo sapiens, UniProt Q09472).
T1 construct: host or cells: A549 P300 HiBit cells
Briefly: P300 degradation, HiBit technology in A549 P300 HiBit cells (2 h). In kind it is cell-based. Particulars: 2 hrs post treatment; for Dmax: A549, A549 P300 HiBit cells; for DC50: A549 P300 HiBit cells. An outline of the steps:
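A549 cells carrying HiBit-tagged p300 or CBP, seeded overnight at 37 °C/5% CO2, then treated with serial compound dilutions from 10 mM DMSO stocks. Incubation was 2 h for p300 and 24 h for CBP, followed by HiBit lytic detection reagent for 10 min at room temperature. Luminescence read gave degradation potency and Dmax.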
(In general: HiBiT is a short tag that completes a luciferase, so light tracks the accessible tagged protein.)

Results on 18 molecules are retold here after US20250114345A1, “COMPOUNDS AND COMPOSITIONS AS CBP/P300 DEGRADERS AND USES THEREOF” (Oncopia Therapeutics, Inc. d/b/a/ SK Life Science Labs, priority 2023, published 2025).

T1 sequence (Q09472 whole entry): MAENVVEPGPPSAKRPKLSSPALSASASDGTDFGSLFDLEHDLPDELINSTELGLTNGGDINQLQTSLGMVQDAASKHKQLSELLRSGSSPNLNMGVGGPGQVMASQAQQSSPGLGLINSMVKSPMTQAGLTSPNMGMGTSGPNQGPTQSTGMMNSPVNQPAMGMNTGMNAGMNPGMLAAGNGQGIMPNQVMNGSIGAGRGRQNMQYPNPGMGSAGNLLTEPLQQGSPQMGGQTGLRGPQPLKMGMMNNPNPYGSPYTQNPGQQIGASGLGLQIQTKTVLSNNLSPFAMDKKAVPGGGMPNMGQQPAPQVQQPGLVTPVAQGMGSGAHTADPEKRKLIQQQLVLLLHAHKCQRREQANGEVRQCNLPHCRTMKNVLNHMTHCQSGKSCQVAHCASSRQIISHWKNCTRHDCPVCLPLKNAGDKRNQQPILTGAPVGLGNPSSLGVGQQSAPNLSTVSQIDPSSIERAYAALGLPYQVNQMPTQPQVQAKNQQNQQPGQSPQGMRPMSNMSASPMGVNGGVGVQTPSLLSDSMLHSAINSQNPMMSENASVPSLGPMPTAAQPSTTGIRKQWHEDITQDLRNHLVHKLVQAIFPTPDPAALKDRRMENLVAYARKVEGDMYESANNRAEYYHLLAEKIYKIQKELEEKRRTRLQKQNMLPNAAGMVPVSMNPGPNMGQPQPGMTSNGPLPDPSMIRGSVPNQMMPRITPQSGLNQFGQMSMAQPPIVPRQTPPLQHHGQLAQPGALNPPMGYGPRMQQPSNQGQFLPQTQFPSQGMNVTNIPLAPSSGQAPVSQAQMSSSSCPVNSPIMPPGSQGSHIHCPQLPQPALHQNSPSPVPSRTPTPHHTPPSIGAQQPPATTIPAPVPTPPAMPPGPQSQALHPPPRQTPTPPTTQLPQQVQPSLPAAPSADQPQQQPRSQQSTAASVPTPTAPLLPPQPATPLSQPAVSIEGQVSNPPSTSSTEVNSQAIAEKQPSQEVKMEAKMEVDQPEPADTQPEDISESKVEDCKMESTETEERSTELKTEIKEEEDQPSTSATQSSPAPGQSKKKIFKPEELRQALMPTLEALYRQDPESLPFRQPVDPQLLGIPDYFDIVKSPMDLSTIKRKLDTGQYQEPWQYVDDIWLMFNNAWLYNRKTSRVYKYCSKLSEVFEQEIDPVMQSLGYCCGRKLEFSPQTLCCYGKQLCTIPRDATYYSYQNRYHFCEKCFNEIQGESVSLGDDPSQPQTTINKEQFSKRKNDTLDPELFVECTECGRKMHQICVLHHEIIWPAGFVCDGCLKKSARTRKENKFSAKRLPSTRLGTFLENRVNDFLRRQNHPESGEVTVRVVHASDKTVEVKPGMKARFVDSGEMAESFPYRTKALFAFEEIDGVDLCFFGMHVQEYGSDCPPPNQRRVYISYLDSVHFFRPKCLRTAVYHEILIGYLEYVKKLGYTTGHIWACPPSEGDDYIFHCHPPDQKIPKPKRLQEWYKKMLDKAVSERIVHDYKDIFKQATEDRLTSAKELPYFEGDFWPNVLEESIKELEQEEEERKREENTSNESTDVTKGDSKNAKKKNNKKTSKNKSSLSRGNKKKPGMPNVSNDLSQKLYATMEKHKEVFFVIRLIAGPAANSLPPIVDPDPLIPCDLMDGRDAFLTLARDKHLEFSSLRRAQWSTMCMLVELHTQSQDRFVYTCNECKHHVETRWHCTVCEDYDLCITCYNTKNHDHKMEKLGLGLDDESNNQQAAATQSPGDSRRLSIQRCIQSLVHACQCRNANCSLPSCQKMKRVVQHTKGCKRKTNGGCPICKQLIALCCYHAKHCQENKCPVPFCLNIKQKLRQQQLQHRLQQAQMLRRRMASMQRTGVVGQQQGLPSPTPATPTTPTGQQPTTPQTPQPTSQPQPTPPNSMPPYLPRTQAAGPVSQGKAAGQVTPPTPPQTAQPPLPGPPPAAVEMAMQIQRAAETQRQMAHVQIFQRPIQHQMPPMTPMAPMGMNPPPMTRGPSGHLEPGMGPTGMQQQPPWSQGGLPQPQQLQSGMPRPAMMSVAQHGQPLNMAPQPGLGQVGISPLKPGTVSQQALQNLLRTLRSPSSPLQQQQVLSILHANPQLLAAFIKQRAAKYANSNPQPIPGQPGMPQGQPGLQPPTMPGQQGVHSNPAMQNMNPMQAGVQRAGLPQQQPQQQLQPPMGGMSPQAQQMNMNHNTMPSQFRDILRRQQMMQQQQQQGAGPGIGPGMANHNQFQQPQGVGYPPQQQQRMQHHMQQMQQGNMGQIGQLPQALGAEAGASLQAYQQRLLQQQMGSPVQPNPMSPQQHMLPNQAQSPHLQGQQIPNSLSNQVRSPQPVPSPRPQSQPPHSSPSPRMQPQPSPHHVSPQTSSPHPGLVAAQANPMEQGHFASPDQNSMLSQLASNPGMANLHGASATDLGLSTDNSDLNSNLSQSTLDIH

For the molecule `CCC(=O)N1CCC(c2cc(N3CCCc4nc(-c5ccc(C(=O)NCC#Cc6ccc7occ(C8CCC(=O)NC8=O)c7c6)nc5)ncc43)c3cc(C)c(=O)n(C)c3c2)CC1` (stereo not drawn) [Example B52, 5-(5-(1,3-dimethyl-2-oxo-7-(1-propionyl-piperidin-4-yl)-1,2-dihydroquinolin-5-yl)-5,6,7,8-tetrahydropyrido[3,2-d]pyrimidin-2-yl)-N-(3-(3-(2,6-dioxopiperidin-3-yl)benzofuran-5-yl)prop-2-yn-1-yl)picolinamide], the Dmax (commonly the largest share of the target that was removed) was more than 80% and the DC50 (commonly the midpoint of the concentration-degradation curve) is less than 1 nM.

As for `Cc1cc2c(N3CCCc4nc(-c5ccc(C(=O)NCC#Cc6ccc7c(c6)N(C6CCC(=O)NC6=O)CCCC7)nc5)ncc43)cc(C3CCOCC3)cc2n(C)c1=O` (stereo not drawn) [Example B57, 5-(5-(1,3-dimethyl-2-oxo-7-(tetrahydro-2H-pyran-4-yl)-1,2-dihydroquinolin-5-yl)-5,6,7,8-tetrahydropyrido[3,2-d]pyrimidin-2-yl)-N-(3-(1-(2,6-dioxopiperidin-3-yl)-2,3,4,5-tetrahydro-1H-benzo[b]azepin-8-yl)prop-2-yn-1-yl) picolinamide], the Dmax is less than 20% and the DC50 was more than 1000 nM.

Consider `Cc1cc2c(N3CCN(C)c4nc(-c5ccc(C(=O)NCC#Cc6cc7c(C8CCC(=O)NC8=O)cccc7o6)nc5)ncc43)cccc2n(C)c1=O` (stereo not drawn) [Example B65, 5-(5-(1,3-dimethyl-2-oxo-1,2-dihydroquinolin-5-yl)-8-methyl-5,6,7,8-tetrahydropteridin-2-yl)-N-(3-(4-(2,6-dioxopiperidin-3-yl)benzofuran-2-yl)prop-2-yn-1-yl)picolinamide], for which the greatest degradation seen (Dmax) was more than 80% and the half-maximal degradation concentration (DC50) lay in the range of 1 to 9.9 nM.

Turning to `Cc1cc2c(N3CCCc4nc(-c5ccc(C(=O)NCC#Cc6ccc7occ(C8CCC(=O)NC8=O)c7c6)nc5)ncc43)nc(C3CCOCC3)cc2n(C)c1=O` (stereo not drawn) [Example B70, 5-(5-(1,3-dimethyl-2-oxo-7-(tetrahydro-2H-pyran-4-yl)-1,2-dihydro-1,6-naphthyridin-5-yl)-5,6,7,8-tetrahydropyrido[3,2-d]pyrimidin-2-yl)-N-(3-(3-(2,6-dioxopiperidin-3-yl)benzofuran-5-yl)prop-2-yn-1-yl)picolinamide], the Dmax was 60 to 79% and the DC50 lay within 1 to 9.9 nM.

`Cc1nc2c(N3CCCc4nc(-c5ccc(C(=O)NCC#Cc6ccc7occ(C8CCC(=O)NC8=O)c7c6)nc5)ncc43)cc(C3CCOCC3)cc2n(C)c1=O` (stereo not drawn) [Example B78, 5-(5-(1,3-dimethyl-2-oxo-7-(tetrahydro-2H-pyran-4-yl)-1,2-dihydroquinoxalin-5-yl)-5,6,7,8-tetrahydropyrido[3,2-d]pyrimidin-2-yl)-N-(3-(3-(2,6-dioxopiperidin-3-yl)benzofuran-5-yl)prop-2-yn-1-yl)picolinamide] came in with a Dmax of less than 20% and a DC50 of more than 1000 nM.

Take `Cc1cc(=O)n(C)c2cc(C3CCOCC3)cc(N3CCCc4nc(-c5ccc(C(=O)NCC#Cc6ccc7occ(C8CCC(=O)NC8=O)c7c6)nc5)ncc43)c12` (stereo not drawn) [Example B80, 5-(5-(1,4-dimethyl-2-oxo-7-(tetrahydro-2H-pyran-4-yl)-1,2-dihydroquinolin-5-yl)-5,6,7,8-tetrahydropyrido[3,2-d]pyrimidin-2-yl)-N-(3-(3-(2,6-dioxopiperidin-3-yl)benzofuran-5-yl)prop-2-yn-1-yl)picolinamide]: the Dmax is less than 20% and the DC50 was more than 1000 nM.

For `Cc1cc2c(N3CCCc4nc(-c5ccc(C(=O)NCC#Cc6ccc7occ(C8(C)CCC(=O)NC8=O)c7c6)nc5)ncc43)cc(C3CCOCC3)cc2n(C)c1=O` (stereo not drawn) [Example B85, 5-(5-(1,3-dimethyl-2-oxo-7-(tetrahydro-2H-pyran-4-yl)-1,2-dihydroquinolin-5-yl)-5,6,7,8-tetrahydropyrido[3,2-d]pyrimidin-2-yl)-N-(3-(3-(3-methyl-2,6-dioxopiperidin-3-yl)benzofuran-5-yl)prop-2-yn-1-yl)picolinamide], the Dmax is less than 20% and the DC50 was more than 1000 nM.

On to `Cc1cc2c(N3CCCc4nc(-c5ccc(C(=O)NCC#Cc6ccc7occ(C8CCC(=O)NC8=O)c7c6)nc5)ncc43)nc(N3CCC3)cc2n(C)c1=O` (stereo not drawn) [Example B86, 5-(5-(7-(azetidin-1-yl)-1,3-dimethyl-2-oxo-1,2-dihydro-1,6-naphthyridin-5-yl)-5,6,7,8-tetrahydropyrido[3,2-d]pyrimidin-2-yl)-N-(3-(3-(2,6-dioxopiperidin-3-yl)benzofuran-5-yl)prop-2-yn-1-yl)picolinamide], for which the Dmax is more than 80% and the 50% degradation concentration (DC50) was 1 to 9.9 nM.

Regarding `Cc1cc(-c2ncc3c(n2)CCCN3c2nc(N3CCOCC3)cc3c2cc(C)c(=O)n3C)cnc1C(=O)NCC#Cc1cc2c(C3CCC(=O)NC3=O)cccc2o1` (stereo not drawn) [Example B89, 5-(5-(1,3-dimethyl-7-morpholino-2-oxo-1,2-dihydro-1,6-naphthyridin-5-yl)-5,6,7,8-tetrahydropyrido[3,2-d]pyrimidin-2-yl)-N-(3-(4-(2,6-dioxopiperidin-3-yl)benzofuran-2-yl)prop-2-yn-1-yl)-3-methylpicolinamide], the Dmax is more than 80% and the DC50 is 1 to 9.9 nM.

Regarding `Cc1cc2c(N3CCOc4cc(-c5ccc(C(=O)NCC#Cc6ccc7occ(C8CCC(=O)NC8=O)c7c6)nc5)c(F)cc43)cc(C(C)C)cc2n(C)c1=O` (stereo not drawn) [Example B91, N-(3-(3-(2,6-dioxopiperidin-3-yl)benzofuran-5-yl)prop-2-yn-1-yl)-5-(6-fluoro-4-(7-isopropyl-1,3-dimethyl-2-oxo-1,2-dihydroquinolin-5-yl)-3,4-dihydro-2H-benzo[b][1,4]oxazin-7-yl)picolinamide], the Dmax is more than 80% and the DC50 lay within 10 to 99 nM.

`CCc1cc2c(cc(C)c(=O)n2C)c(-c2cccc3cc(-c4ccc(C(=O)NCC#Cc5ccc6occ(C7CCC(=O)NC7=O)c6c5)nc4)ncc23)n1` (stereo not drawn) [Example B93, N-(3-(3-(2,6-dioxopiperidin-3-yl)benzofuran-5-yl)prop-2-yn-1-yl)-5-(8-(7-ethyl-1,3-dimethyl-2-oxo-1,2-dihydro-1,6-naphthyridin-5-yl)isoquinolin-3-yl)picolinamide]: the Dmax fell in the range of 60 to 79% and the DC50 lay in the range of 1 to 9.9 nM.

`Cc1cc2c(N3CCN(C)c4cc(-c5ccc(C(=O)NCC#Cc6cc7c(C8CCC(=O)NC8=O)cccc7o6)nc5)ncc43)cc(C(C)C)cc2n(C)c1=O` (stereo not drawn) [Example B95, N-(3-(4-(2,6-dioxopiperidin-3-yl)benzofuran-2-yl)prop-2-yn-1-yl)-5-(4-(7-isopropyl-1,3-dimethyl-2-oxo-1,2-dihydroquinolin-5-yl)-1-methyl-1,2,3,4-tetrahydropyrido[3,4-b]pyrazin-7-yl)picolinamide] came in with a Dmax of more than 80% and a half-maximal degradation concentration (DC50) of less than 1 nM.

Take `Cc1cc2c(N3CCCc4nc(-c5ccc(C(=O)NCC#Cc6cc7c(C89CC(C8)C(=O)NC9=O)cccc7o6)nc5)ncc43)cc(C3CCOCC3)cc2n(C)c1=O` [Example B97, 5-(5-(1,3-dimethyl-2-oxo-7-(tetrahydro-2H-pyran-4-yl)-1,2-dihydroquinolin-5-yl)-5,6,7,8-tetrahydropyrido[3,2-d]pyrimidin-2-yl)-N-(3-(4-(2,4-dioxo-3-azabicyclo[3.1.1]heptan-1-yl)benzofuran-2-yl)prop-2-yn-1-yl)picolinamide]: the Dmax was less than 20% and the DC50 fell in the range of 100 to 999 nM.

`Cc1cc2c(N3CCOc4cc(-c5ccc(C(=O)NCC#Cc6ccc7occ(C8CCC(=O)NC8=O)c7c6)nc5)c(F)cc43)cc(C3CCOCC3)cc2n(C)c1=O` (stereo not drawn) [Example B99, 5-(4-(1,3-dimethyl-2-oxo-7-(tetrahydro-2H-pyran-4-yl)-1,2-dihydroquinolin-5-yl)-6-fluoro-3,4-dihydro-2H-benzo[b][1,4]oxazin-7-yl)-N-(3-(3-(2,6-dioxopiperidin-3-yl)benzofuran-5-yl)prop-2-yn-1-yl)picolinamide] had a Dmax of more than 80% and a DC50 of 1 to 9.9 nM.

With `Cc1cc2c(N3CCOc4cc(-c5ccc(C(=O)NCC#Cc6ccc7occ(C8CCC(=O)NC8=O)c7c6)nc5)c(F)cc43)cc(F)cc2n(C)c1=O` (stereo not drawn) [Example B100, N-(3-(3-(2,6-dioxopiperidin-3-yl)benzofuran-5-yl)prop-2-yn-1-yl)-5-(6-fluoro-4-(7-fluoro-1,3-dimethyl-2-oxo-1,2-dihydroquinolin-5-yl)-3,4-dihydro-2H-benzo[b][1,4]oxazin-7-yl) picolinamide], the Dmax was more than 80% and the half-maximal degradation concentration (DC50) lay within 1 to 9.9 nM.

Molecule `Cc1cc2c(-c3cccc4cc(-c5ccc(C(=O)NCC#Cc6ccc7occ(C8CCC(=O)NC8=O)c7c6)nc5)ncc34)nc(N3CC(C)(O)C3)cc2n(C)c1=O` (stereo not drawn) [Example B101, N-(3-(3-(2,6-dioxopiperidin-3-yl)benzofuran-5-yl)prop-2-yn-1-yl)-5-(8-(7-(3-hydroxy-3-methylazetidin-1-yl)-1,3-dimethyl-2-oxo-1,2-dihydro-1,6-naphthyridin-5-yl)isoquinolin-3-yl)picolinamide] showed a Dmax of more than 80% and a DC50 of 1 to 9.9 nM.

`Cc1cc(N2CCN(C)c3nc(-c4ccc(C(=O)NCC#Cc5cc6c(C7CCC(=O)NC7=O)cccc6o5)nc4)ncc32)c2cc(C)c(=O)n(C)c2c1` (stereo not drawn) [Example B104, N-(3-(4-(2,6-dioxopiperidin-3-yl)benzofuran-2-yl)prop-2-yn-1-yl)-5-(8-methyl-5-(1,3,7-trimethyl-2-oxo-1,2-dihydroquinolin-5-yl)-5,6,7,8-tetrahydropteridin-2-yl)picolinamide] came in with a Dmax of more than 80% and a DC50 of 1 to 9.9 nM.

The molecule `Cn1c(=O)ccc2c(N3CCCc4nc(-c5ccc(C(=O)NCC#Cc6ccc7occ(C8CCC(=O)NC8=O)c7c6)nc5)ncc43)cc(C3CCOCC3)cc21` (stereo not drawn) [Example B105, N-(3-(3-(2,6-dioxopiperidin-3-yl)benzofuran-5-yl)prop-2-yn-1-yl)-5-(5-(1-methyl-2-oxo-7-(tetrahydro-2H-pyran-4-yl)-1,2-dihydro-quinolin-5-yl)-5,6,7,8-tetrahydropyrido[3,2-d]pyrimidin-2-yl)picolinamide] showed a Dmax of less than 20% and a DC50 of more than 1000 nM.
